Assay results: US7718128B2, “Application using non-covalent bond between a cucurbituril derivative and a ligand” (Postech Foundation, priority 2005, dated 2010)

Test system: KB cells (oral carcinoma cells)
Experiment: measurement of degree of cell death by flow cytometry (annexin V-ferrocene derivative / FITC-cucurbituril derivative)
Assay type: cell-based
Conditions: 0.5 μM (0.3 μg/mL) doxorubicin, 3 days, versus sample not treated
Experimental: After a ferrocene derivative bound to annexin V, which is known as a protein that can selectively bind to surfaces of dead cells, was treated on cells induced to die using an anti-cancer drug, the cells were treated with an FITC-bound cucurbituril derivative, and the degree of cell death was measured through flow cytometry.
2 mL of […] culture solution (containing 10% FCS) and about 10^6 KB cells (oral carcinoma cells) (obtained from the Korean Cell Line Bank (KCLB)) were cultured in two 6-well cell culture dishes at 37° C. in a 5% CO2 condition for 48 hours.
Next, 2 mL of the RPMT-1640 culture solution (containing 10% FCS) in one of the 6-well cell culture dishes was replaced by the same, fresh culture solution, and 2 mL of the RPMT-1640 culture solution in the other 6-well cell culture dish was replaced by 0.5 μM (0.3 μg/mL) of doxorubicin, and the two culture dishes were incubated at 37° C. in a 5% CO2 condition for 3 days.
The culture solution in the two cell culture dishes incubated in (1) was removed. […]
Next, the degree of cell depth in each of the samples was measured through flow cytometry (FACSCalibur, Becton Dickinson Corp., Ex=488 nm, Em=530 nm (for FITC detection).

Which “degree of cell death (FITC signal, flow cytometry)” value does the source give for `COc1cccc2c1C(=O)c1c(O)c3c(c(O)c1C2=O)C[C@@](O)(C(=O)CO)C[C@@H]3O[C@H]1C[C@H](N)[C@H](O)[C@H](C)O1` [doxorubicin] here?
Its value is “most cells in the doxorubicin-treated sample died”.
